These results are taken from US20210371413A1, “POLYCYCLIC AMIDES AS CYTOTOXIC AGENTS” (FEMTOGENIX LIMITED, priority 2018, published 2021).

Assay [1] relates to 5′-[…]-3′ (poly GC) DNA duplex. The experiment in a line: FRET DNA melting, poly GC duplex. Type of assay: binding. To be noted: 5′-AATAGGGGGTCGCCTATT-3′. Here is the method:
FRET DNA melting studies were undertaken on 15 and 16 using two fluorescently labelled sequences. The sequences (FIG. 1) were designed to represent poly AT and poly GC sequences.
The short duplexes used in this FRET study are relatively unstable in the duplex form with a melting temperature below 30° C. so that, in the absence of ligand, a large part of the melting occurs below the starting temperature of the experiment. However, it can be observed that 15 stabilizes the duplex form, producing increases in melting temperature with ΔTm values of […] for 5′-AAAAAAAGAAAAAATIT-3′ (FIG. 2, top panel), and ˜25° C. (FIG. 2, bottom panel).
Oligonucleotides were obtained from ATDbio (Southampton, UK) in lyophilised form. […]
The reaction mixture was comprised of 4 μL of 250 mM phosphate buffer (final concentration of 50 mM), 4 μL flourophor and 4 μL quencher molecule of the appropriate oligonucleotide for a final concentration of 0.2 μM, 4 μL 5 M sodium chloride (final concentration of 1 M NaCl), and 4 μL of distilled H2O. […] This mixture was analysed without prior annealing.
Fluorescence melting profiles were measured using a Roche LightCycler using a total reaction volume of 20 μL. […] Annealing steps and melting steps were all recorded and changes in fluorescence were measured at 520 nm. […]

Assay [2] relates to Klebsiella pneumoniae KP4631. In words: MIC assay, Klebsiella pneumoniae KP4631. The assay is classed as cell-based. To be noted: Klebsiella pneumoniae, KP4631. Here is the method: The antimicrobial activity of a selection of compounds were evaluated in a Gram-negative, Gram-positive and multi-resistant bacteria using the standard minimum inhibitory concentration (MIC) assay for an overnight (16-20 hour) incubation period. Commercially marketed antibiotics (Table 3) were used as positive controls during the study.
Mueller-Hinton broth (MH Broth) (Sigma-Aldrich; Millipore, cat. no. 70192) and Mueller-Hinton agar (MHA) (Sigma-Aldrich; Millipore, cat. no. 70191) were prepared as per manufacturer's instructions and sterilized by autoclaving. Approximately 20 mL of MHA was poured onto 15×100 mm petri dishes and allowed to set. Agar plates were then stored in plastic bags in an inverted position at 4° C.
Bacterial strains were provided in the form of a glycerol stock, stored at −80° C. For the purpose of preparation of bacterial suspension, appropriate strains were removed from −80° C. storage onto dry ice and not allowed to freeze-thaw.
Stock solutions of 16, 45 and 73 were provided in DMSO at 1.28 mg/mL concentration. From this stock solution, working solutions of the desired concentration were prepared by diluting with MHB.
MIC assay methodology was adapted from previously published work.
Bacterial isolate to be tested was streaked onto a nutrient-rich MH agar plate and incubated overnight at 37° C. in order to obtain single colonies.
After overnight incubation, single colonies with the same morphological appearance were chosen from the agar plate. These were touched using a sterile loop and transferred into a tube containing 10 mL of a MH broth. They were then mixed using vortex mixer and incubated at 35-37° C. in a shaker at 200 r.p.m. overnight.
Determination of OD600 and cfu/mL count OD600 (the optical density of a sample measured at a wavelength of 600 nm) of the overnight culture was measured. Because of the loss of linearity at OD600 values […], it was necessary to dilute the sample until the OD600 value was below 1.0. For all tested bacteria, a dilution of 1:10 was appropriate (100 μL in 900 μL broth).
The overnight culture was then diluted 1:100 using sterile tubes and MH broth (dilution: 10^−2). Serial dilution was then performed six times until dilution of 10^−8 was reached. 100 μL of dilutions 10^−7 and 10^−8 were plated onto MH agar plates in triplicate using a sterile cell spreader and incubated overnight at 37° C.
After overnight incubation, colonies on plates were counted and cfu per mL calculated. The following formula was applied: […]
After overnight incubation, the OD600 was measured and the overnight culture was diluted accordingly to obtain 1×10^8 cfu/mL. […]
The 96-well plates were read using a SpectraMax plate reader at an absorbance of 600 nm. […]

For `COc1cc2c(cc1OCCCC(=O)Nc1cc(C(=O)Nc3ccc(-c4cc(C(=O)Nc5ccc(N)cc5)n(C)c4)cc3)n(C)c1)NC[C@@H]1CCCCN1C2=O` [Compound 16, (S)—N-(4-Aminophenyl)-4-(4-(4-(4-((2-methoxy-12-oxo-5,6,6a,7,8,9,10,12-octahydrobenzo[e]pyrido[1,2-a][1,4]diazepin-3-yl)oxy)butanamido)-1-methyl-1H-pyrrole-2-carboxamido)phenyl)-1-methyl-1H-pyrrole-2-carboxamide], the “interactivity with the poly-GC sequence (FRET)” value in assay [1] is on record as “little interactivity”. The molecule further returned an MIC in assay [2] of more than 8 µg/mL.
